Measured values taken from ChEMBL document CHEMBL5620430, “Design, synthesis and biological evaluation of indazole derivatives as selective covalent inhibitors of FGFR4 in wild-type and gatekeeper mutants” (Eur J Med Chem, 2023).
The source made the active and inactive calls. The calls are words filed in the database; no cut-off is given here.

Tests used:
[1] = target: T1, Fibroblast growth factor receptor 4 (Homo sapiens, UniProt P22455); test: Inhibition of FGFR4 in human Huh-7 cells assessed as inhibition of MEK phosphorylation at 0.5 uM by Western blot analysis; type: cell-based; details: time <= 24.0 hrs, TDE = time-dependent effect
Target sequence in this assay (P22455 22-802 limits assumed): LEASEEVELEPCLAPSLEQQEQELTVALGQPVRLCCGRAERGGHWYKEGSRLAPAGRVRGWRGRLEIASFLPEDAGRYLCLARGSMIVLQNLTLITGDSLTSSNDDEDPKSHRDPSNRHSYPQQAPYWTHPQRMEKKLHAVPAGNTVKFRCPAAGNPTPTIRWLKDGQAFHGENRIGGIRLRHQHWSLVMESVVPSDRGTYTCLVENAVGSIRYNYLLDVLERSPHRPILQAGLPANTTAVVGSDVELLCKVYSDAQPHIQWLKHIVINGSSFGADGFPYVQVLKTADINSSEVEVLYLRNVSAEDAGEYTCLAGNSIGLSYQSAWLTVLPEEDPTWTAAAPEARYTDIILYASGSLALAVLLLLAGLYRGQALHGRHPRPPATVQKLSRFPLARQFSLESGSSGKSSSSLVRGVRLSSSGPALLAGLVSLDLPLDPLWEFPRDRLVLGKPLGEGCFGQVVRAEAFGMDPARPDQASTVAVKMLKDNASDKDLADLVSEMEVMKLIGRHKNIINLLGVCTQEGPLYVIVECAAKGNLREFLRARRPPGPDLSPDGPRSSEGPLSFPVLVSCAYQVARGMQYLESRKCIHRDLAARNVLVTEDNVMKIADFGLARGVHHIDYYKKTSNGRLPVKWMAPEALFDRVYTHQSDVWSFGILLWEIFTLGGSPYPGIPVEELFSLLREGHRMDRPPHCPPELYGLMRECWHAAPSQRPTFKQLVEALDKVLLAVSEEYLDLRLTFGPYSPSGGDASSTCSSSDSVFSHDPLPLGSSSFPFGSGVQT

Huh-7 [2] = test: cells; details: Homo sapiens
Description: Antiproliferative activity against human Huh-7 cells measured after 24 to 48 hrs by MTT assay

Huh-7 [3] = test: Antitumor activity against human Huh-7 cells xenografted in ip dosed NSG mouse assessed as decrease in tumor weight administered twice per day for 2 weeks; type: functional, organism-based; details: dose 20-40 mg/kg
BaF3 = test: cells; details: Mus musculus
Description: Antiproliferative activity against mouse BaF3 cells harbouring ETV6-FGFR4-V550L mutant measured after 24 to 48 hrs by MTT assay

[4] = Cmax in Sprague-Dawley rat at 2 mg/kg, iv by LC-MS/MS analysis; type: ADME, organism-based; details: in vivo
[5] = Metabolic stability in liver microsomes (unknown origin) assessed as half life; type: ADME, Microsome
[6] = target: T1, Fibroblast growth factor receptor 4; test: Inhibition of FGFR4 phosphorylation in human Huh-7 cells at 120 nM by Western blot analysis; type: cell-based
Target sequence in this assay (P22455 22-802 limits assumed): as above

[7] = target: T1, Fibroblast growth factor receptor 4; test: Inhibition of FGFR4 in human Huh-7 cells assessed as inhibition of ERK1/2 phosphorylation measured after 2 hrs by Western blot analysis; type: cell-based
Target sequence in this assay (P22455 22-802 limits assumed): as above

[8] = Toxicity in NSG mouse assessed as effect on LDH level at 20 to 40 mg/kg […]; type: organism-based; details: in vivo, dose 20-40 mg/kg
[9] = Toxicity in NSG mouse assessed as effect on UA level at 20 to 40 mg/kg […]; type: organism-based; details: in vivo, dose 20-40 mg/kg
Huh-7 [10] = test: Antitumor activity against human Huh-7 cells xenografted in ip dosed NSG mouse assessed as suppression of tumor growth administered twice per day for 2 weeks; type: functional, organism-based; details: dose 20-40 mg/kg
[11] = MRT (0 to t) in Sprague-Dawley rat at 2 mg/kg, iv by LC-MS/MS analysis; type: ADME, organism-based; details: in vivo
[12] = Toxicity in NSG mouse assessed as effect on lung at 20 to 40 mg/kg by H and E staining based analysis; type: organism-based; details: in vivo, dose 20-40 mg/kg
[13] = Toxicity in NSG mouse assessed as effect on CK level at 20 to 40 mg/kg […]; type: organism-based; details: in vivo, dose 20-40 mg/kg
[14] = Toxicity in NSG mouse assessed as effect on ALP level at 20 to 40 mg/kg […]; type: organism-based; details: in vivo, dose 20-40 mg/kg
[15] = target: T1, Fibroblast growth factor receptor 4; test: Inhibition of FGFR4 in human Huh-7 cells assessed as inhibition of MEK phosphorylation incubated for 2 hrs followed by compound washout and measured upto 8 hrs by Western blot analysis; type: cell-based
Target sequence in this assay (P22455 22-802 limits assumed): as above

[16] = Toxicity in NSG mouse assessed as lethality at 20 to 40 mg/kg […]; type: organism-based; details: in vivo, dose 20-40 mg/kg
[17] = Cmax in Sprague-Dawley rat at 10 mg/kg, po by LC-MS/MS analysis; type: ADME, organism-based; details: in vivo
[18] = target: T1, Fibroblast growth factor receptor 4
Target sequence in this assay (P22455 whole entry): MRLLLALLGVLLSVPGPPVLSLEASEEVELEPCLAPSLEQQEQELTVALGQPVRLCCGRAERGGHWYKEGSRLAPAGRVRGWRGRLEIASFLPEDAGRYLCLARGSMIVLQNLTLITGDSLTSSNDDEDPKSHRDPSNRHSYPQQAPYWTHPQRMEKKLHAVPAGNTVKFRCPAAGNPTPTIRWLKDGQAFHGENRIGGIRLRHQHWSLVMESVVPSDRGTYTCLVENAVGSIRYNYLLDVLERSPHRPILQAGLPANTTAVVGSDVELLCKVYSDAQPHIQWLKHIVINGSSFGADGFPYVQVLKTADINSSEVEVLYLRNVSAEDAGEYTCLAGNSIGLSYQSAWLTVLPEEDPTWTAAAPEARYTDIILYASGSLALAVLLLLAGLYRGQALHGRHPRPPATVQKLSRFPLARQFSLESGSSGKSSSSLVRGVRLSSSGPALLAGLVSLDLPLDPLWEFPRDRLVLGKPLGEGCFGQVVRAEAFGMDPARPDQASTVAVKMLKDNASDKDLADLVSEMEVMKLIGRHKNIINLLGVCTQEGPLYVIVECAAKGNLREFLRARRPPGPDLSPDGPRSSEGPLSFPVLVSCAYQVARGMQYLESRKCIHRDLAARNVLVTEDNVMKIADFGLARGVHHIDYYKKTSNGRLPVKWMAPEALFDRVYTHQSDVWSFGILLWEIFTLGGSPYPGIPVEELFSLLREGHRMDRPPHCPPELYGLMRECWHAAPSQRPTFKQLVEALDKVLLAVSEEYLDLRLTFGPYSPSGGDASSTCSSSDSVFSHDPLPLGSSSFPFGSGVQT
Description: Inhibition of FGFR4 (445 to 753 residues) (unknown origin) expressed in Escherichia coli

[19] = Toxicity in NSG mouse assessed as effect on TP level at 20 to 40 mg/kg […]; type: organism-based; details: in vivo, dose 20-40 mg/kg
[20] = Oral bioavailability in Sprague-Dawley rat at 10 mg/kg by LC-MS/MS analysis; type: ADME, organism-based; details: in vivo
[21] = Toxicity in NSG mouse assessed as effect on UREA level at 20 to 40 mg/kg […]; type: organism-based; details: in vivo, dose 20-40 mg/kg
[22] = target: T1, Fibroblast growth factor receptor 4; test: Inhibition of FGFR4 in human Huh-7 cells assessed as inhibition of MEK phosphorylation measured after 2 hrs by Western blot analysis; type: cell-based
Target sequence in this assay (P22455 22-802 limits assumed): as the sequence (P22455 22-802 limits assumed) above

[23] = Toxicity in NSG mouse assessed as effect on LDL-C level at 20 to 40 mg/kg […]; type: organism-based; details: in vivo, dose 20-40 mg/kg
[24] = Toxicity in NSG mouse assessed as effect on AST level at 20 to 40 mg/kg […]; type: organism-based; details: in vivo, dose 20-40 mg/kg
Huh-7 [25] = test: Inhibition of cell migration in human Huh-7 cells at 5 uM incubated for 24 hrs by wound healing assay relative to control; type: functional
Huh-7 [26] = test: Antitumor activity against human Huh-7 cells xenografted in ip dosed NSG mouse assessed as decrease in FGFR4 phosphorylation level administered twice per day for 2 weeks; type: functional, organism-based; details: dose 20-40 mg/kg
[27] = Toxicity in NSG mouse assessed as effect on CHO level at 20 to 40 mg/kg […]; type: organism-based; details: in vivo, dose 20-40 mg/kg
Huh-7 [28] = test: Induction of cell cycle arrest in human Huh-7 cells assessed as accumulation of cells at G0/G1 phase at 1 to 2 uM measured after 48 hrs by propidium iodide staining based flow cytometry analysis; type: functional; details: dose 1-2 µM
[29] = Toxicity in NSG mouse assessed as effect on HDL-C level at 20 to 40 mg/kg […]; type: organism-based; details: in vivo, dose 20-40 mg/kg
Huh-7 [30] = test: Antitumor activity against human Huh-7 cells xenografted in NSG mouse assessed as suppression of tumor growth at 20 mg/kg, ip administered twice per day for 2 weeks relative to control; type: functional
[31] = target: T1, Fibroblast growth factor receptor 4; test: Inhibition of FGFR4 in human Huh-7 cells assessed as inhibition of ERK1/2 phosphorylation at 0.5 uM by Western blot analysis; type: cell-based; details: time <= 24.0 hrs, TDE = time-dependent effect
Target sequence in this assay (P22455 22-802 limits assumed): as above

[32] = Observed clearance in Sprague-Dawley rat at 2 mg/kg, iv by LC-MS/MS analysis; type: ADME, organism-based; details: in vivo
Huh-7 [33] = test: Antitumor activity against human Huh-7 cells xenografted in ip dosed NSG mouse assessed as decrease in Ki-67 expression administered twice per day for 2 weeks; type: functional, organism-based; details: dose 20-40 mg/kg
[34] = Half life in Sprague-Dawley rat at 10 mg/kg, po by LC-MS/MS analysis; type: ADME, organism-based; details: in vivo
[35] = MRT (0 to t) in Sprague-Dawley rat at 10 mg/kg, po by LC-MS/MS analysis; type: ADME, organism-based; details: in vivo
[36] = Antiproliferative activity against human L02 cells measured after 24 to 48 hrs by MTT assay; type: toxicity, cell-based
Huh-7 [37] = test: Inhibition of colony formation in human Huh-7 cells assessed as reduction in number of colonies at 10 to 270 nM measured for 12 days; type: functional, cell-based; details: dose 10-270 nM, time 12.0 day
[38] = Toxicity in NSG mouse assessed as effect on ALB level at 20 to 40 mg/kg […]; type: organism-based; details: in vivo, dose 20-40 mg/kg
[39] = AUC (0 to t) in Sprague-Dawley rat at 2 mg/kg, iv by LC-MS/MS analysis; type: ADME, organism-based; details: in vivo
[40] = target: Fibroblast growth factor receptor 2 (Homo sapiens, UniProt P21802)
Description: Inhibition of FGFR2 (unknown origin)

Huh-7 [41] = test: Antitumor activity against human Huh-7 cells xenografted in NSG mouse assessed as suppression of tumor growth at 40 mg/kg, ip administered twice per day for 2 weeks relative to control; type: functional
[42] = Toxicity in NSG mouse assessed as effect on liver at 20 to 40 mg/kg by H and E staining based analysis; type: organism-based; details: in vivo, dose 20-40 mg/kg
Huh-7 [43] = test: Induction of apoptosis in human Huh-7 cells assessed as late apoptotic cells at 1 uM measured after 48 hrs by AnnexinV-FITC/PI staining based flow cytometry (reference value: 2.55%); type: functional

Chain of Fibroblast growth factor receptor 2 (P21802 whole entry): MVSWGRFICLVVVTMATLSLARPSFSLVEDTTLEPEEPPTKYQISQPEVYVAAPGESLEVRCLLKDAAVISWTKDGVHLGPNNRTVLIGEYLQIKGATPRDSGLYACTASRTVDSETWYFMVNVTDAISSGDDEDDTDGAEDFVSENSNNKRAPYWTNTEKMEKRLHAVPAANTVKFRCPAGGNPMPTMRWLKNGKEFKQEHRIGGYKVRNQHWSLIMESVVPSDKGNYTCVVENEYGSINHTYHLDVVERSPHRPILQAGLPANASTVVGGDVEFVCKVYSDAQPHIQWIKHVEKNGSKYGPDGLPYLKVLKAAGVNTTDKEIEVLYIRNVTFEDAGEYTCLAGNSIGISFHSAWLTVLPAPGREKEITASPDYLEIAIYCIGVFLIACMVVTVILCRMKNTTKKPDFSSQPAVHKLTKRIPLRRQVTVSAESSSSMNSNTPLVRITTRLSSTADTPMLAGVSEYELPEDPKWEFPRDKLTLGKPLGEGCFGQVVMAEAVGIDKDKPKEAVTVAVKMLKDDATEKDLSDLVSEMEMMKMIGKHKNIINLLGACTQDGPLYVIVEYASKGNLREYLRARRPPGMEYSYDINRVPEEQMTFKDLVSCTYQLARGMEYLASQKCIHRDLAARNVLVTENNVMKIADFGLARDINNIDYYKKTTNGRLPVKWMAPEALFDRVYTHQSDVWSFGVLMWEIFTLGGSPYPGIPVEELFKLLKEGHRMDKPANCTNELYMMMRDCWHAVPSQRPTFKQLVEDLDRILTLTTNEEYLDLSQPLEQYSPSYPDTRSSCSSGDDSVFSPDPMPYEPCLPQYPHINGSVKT

With `C=CC(=O)Nc1cc2c(cc1-c1n[nH]c3ccc(O[C@H](C)c4c(Cl)cncc4Cl)cc13)CCN(C)C2` the inhibition [1] was “Tde”, the IC50 (Huh-7 [2]) was 0.021 µM and the Activity (Huh-7 [3]) was “Dose-Dependent Effect”. It also gave an IC50 (BaF3) of 0.002 µM, a Cmax [4] of 214 ng/mL and a half-life [5] of 8.99 min. The inhibition [6] was “Active”, the inhibition [7] was “Dose-Dependent Effect” and the Activity [8] was “Non-Toxic”. For the same compound, the Activity [9] was “Non-Toxic”, the Activity (Huh-7 [10]) was “Dose-Dependent Effect” and the MRT last [11] was 1.55 h. For the same compound, the Activity [12] was “Non-Toxic”, the Activity [13] was “Non-Toxic” and the Activity [14] was “Non-Toxic”. The inhibition [15] was “Active”, the Activity [16] was “Non-Toxic” and the Cmax [17] was 4.91 ng/mL. For the same compound, the IC50 [18] was 0.0024 µM, the Activity [19] was “Non-Toxic” and the bioavailability [20] was 1.36%. The Activity [21] was “Non-Toxic”, the inhibition [22] was “Dose-Dependent Effect” and the Activity [23] was “Non-Toxic”. The Activity [24] was “Non-Toxic”, the inhibition at 5 µM (Huh-7 [25]) was 90% and the Activity (Huh-7 [26]) was “Dose-Dependent Effect”. The Activity [27] was “Non-Toxic”, the Activity (Huh-7 [28]) was “Active” and the Activity [29] was “Non-Toxic”. The Activity (Huh-7 [30]) was 60.2%, the inhibition [31] was “Tde” and the clearance [32] was 174 mL/min/kg. For the same compound, the Activity (Huh-7 [33]) was “Dose-Dependent Effect”, the half-life [34] was 2.59 h and the MRT last [35] was 3.04 h. The IC50 [36] was > 10 µM, the inhibition (Huh-7 [37]) was “Active” and the Activity [38] was “Non-Toxic”. The AUC(0-t) [39] was 192 ng·h/mL, the IC50 [40] was > 3000 µM and the Activity (Huh-7 [41]) was 83%. For the same compound, the Activity [42] was “Non-Toxic” and the Activity (Huh-7 [43]) was 7.46%.
